Test results published in PubChem BioAssay AID179 (DTP/NCI, 2004).
“And” between values parts separate entries of the source, which are not always exact repeats. Equal values may be shown once. The source made the active and inactive calls.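 How the source made its calls: active means compounds giving half or more protection of infected cells from virus-caused growth loss, again on retest; inactive means the rest.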

System: CEM cells HIV-1 protection, formazan growth assay
Assay: NCI AIDS Antiviral Assay
Details: for IC50: measured here: growth of uninfected CEM cells
Procedure, shortened: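 CEM (human) cells, HIV-1 infected vs uninfected, 5-point dosing, formazan growth read-out. Retest threshold 50% protection.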

Row | Structure (SMILES) | outcome | EC50 [µM] | IC50
1 | NC(N)=Nc1ccc(N)cc1 | inactive | – | –
2 | C#CCOCn1cnc2c(N)ncnc21 | – | > 1230 | 692 µM
3 | COc1cc(C2OC(N)=C(C#N)C3=C2C(C)CCC3)cc(OC)c1OC (configuration not stated) | inactive | – | –
4 | C(=C\c1ccccc1)/C[P+](c1ccccc1)(c1ccccc1)c1ccccc1 | – | > 200 | 0.525 µM
5 | COc1ccc(N2C(=O)C3c4[nH]c5ccc([N+](=O)[O-])cc5c4C4CCC(C(C)(C)C)CC4C3C2=O)cc1 (configuration not stated) | – | > 200 | 18.2 µM
6 | Cc1ccc(-n2cc(-c3ccc(Cl)cc3)c3c(NN)ncnc32)cc1 | – | > 200 | 3.72 µM
7 | N#Cc1ccc(/C=N\N2C(=O)c3ccccc3C2=O)cc1 | – | > 26.3 | > 26.3 µM
8 | C=CC(O)C#Cc1cnc(OC)nc1OC (configuration not stated) | inactive | – | –
9 | CCOC(=O)c1[nH]c(CN(C)Cc2[nH]c(C(=O)OCC)c(C)c2C(=O)OCc2ccccc2)c(C(=O)OCc2ccccc2)c1C | – | > 6.03 | > 6.03 µM
10 | CCCCCCCCCCCc1c2oc3ccccc3nc-2cc(Nc2ccccc2O)c1=O | – | > 2.95 | > 2.95 µM
11 | Cc1ccc(-c2cc(-c3ccco3)c(C#N)c(=S)n2C2OC(CO)C(O)C(O)C2O)cc1 (configuration not stated) | – | > 200 | 9.33 µM and 57.5 µM
12 | COc1cc(C(=O)NC2CCc3cc(OC)c(OC)c(OC)c3-c3ccc(OC)c(=O)cc32)cc(OC)c1OC (configuration not stated) | – | > 0.2 | 0.0661 µM
13 | CCOc1cc2c(cc1O)/C(=N\OC)C[C@@H]1[C@@H]2CC[C@]2(C)[C@@H](O)CC[C@@H]12 | – | > 200 | 0.0724 µM
14 | S=C1CNC(=S)CN1 | inactive | – | –
15 | Nc1ncnc2c1nnn2C1CCC(CP(=O)(O)O)C1 (configuration not stated) | – | > 200 | > 200 µM
16 | CC(=O)NCCC1CN(C(=O)/C=C\C#C[Si](C)(C)C)c2ccccc21 (configuration not stated) | – | > 200 | 19.5 µM
17 | Cc1ccccc1NC(=O)/C(C#N)=N\Nc1nc[nH]c1C(N)=O | – | > 200 | 0.257 µM
18 | COC(=O)N1CC2CCCC(C2)c2ccccc21 (configuration not stated) | – | > 204 | 186 µM
19 | COc1ccc(NC(=O)/N=C2\CN(C(=O)c3c(F)cccc3F)C(=O)N2c2ccc(OC)cc2)cc1 | – | > 200 | 129 µM
20 | Cc1ccc(C(=O)O)c(/C=C2\Cc3cc(C)cc(C)c3C2=O)c1 | inactive | – | –
21 | CNn1c(-c2ccccc2)n[nH]c1=O | – | 110 | 151 µM
22 | CCN(CC)CCN.[O-][Cl+3]([O-])([O-])[O-].[Pd+2].c1ccc(-c2ccccn2)nc1 | – | > 200 | 32.4 µM

Row | Structure (SMILES) | outcome | EC50 [µM] | IC50
23 | O=CN/C=C/c1ccccc1 | – | > 200 | > 200 µM
24 | CC(=O)Nc1cc(S(=O)(=O)O)cc2cc(S(=O)(=O)O)c(N=Nc3ccc(C(=O)Nc4ccc5cc(S(=O)(=O)O)ccc5c4)cc3)c(O)c12 | inactive | – | –
25 | COc1cccc(/C=N/[N-]C(N)=O)c1[O-].[OH3+].[Pd+2] | – | > 21.9 | > 21.9 µM
26 | O=C(Nc1ccc(/C=C\c2ccc([N+](=O)[O-])cc2S(=O)(=O)O)c(S(=O)(=O)O)c1)OCc1ccccc1 | – | > 200 | > 200 µM
27 | COc1cc(CO)c(-c2c(CO)cc(OC)c(OC)c2OC)c(OC)c1OC | – | > 631 | > 631 µM
28 | COc1nccnc1NS(=O)(=O)c1ccc(N)cc1 | – | > 200 | > 200 µM
29 | Cc1cc(C)c(-c2no/c(=N\S(=O)(=O)c3ccc(Cl)cc3)o2)c(C)c1 | – | > 200 | > 200 µM
30 | CC1C[C@@]23C4CCCN2CC2OC2[C@@]13C1CC4OC1=O (some centres not stated) | – | > 182 | > 182 µM
31 | C=C(C)C1Cc2c(cc(OC)c3c(=O)c4ccccc4n(C)c23)O1 (configuration not stated) | – | > 22.4 | > 22.4 µM
32 | Clc1cccc(N2CCN(CCCN3CCc4c([nH]c5ccccc45)C3c3cccnc3)CC2)c1 (configuration not stated) | – | > 5.37 | > 5.37 µM
33 | Cc1ccc2c(c1)C(C1Cc3c(C)cccc3C1=O)OC2=O (configuration not stated) | – | > 200 | > 200 µM
34 | CSC1=NC(C(N)=O)C(N)N1C (configuration not stated) | – | > 200 | > 200 µM
35 | CCCN(CCC)C(=S)Sc1nc(C)nc(N2CCN(c3nc(C)nc(SC(=S)N(CCC)CCC)c3[N+](=O)[O-])CC2)c1[N+](=O)[O-] | – | > 200 | 2.04 µM
36 | CC(C)=CCCC(C)CCN(O)CC(CO)OC(CO)n1cc(C)c(=O)[nH]c1=O (configuration not stated) | – | > 200 | 135 µM
37 | CC(=O)OC12c3ccccc3-c3ccccc3C1C(C(=O)O)C2(Cl)C(=O)O (configuration not stated) | – | > 646 | 355 µM
38 | CC1CN=C(N(C)C(=O)Nc2ccc(Cl)cc2)S1 (configuration not stated) | inactive | – | –
39 | COc1ccc2nc3ccc(OC)cc3c(SCCCl)c2c1 | inactive | – | –
40 | COC(=O)C1=C2Nc3ccccc3[C@@]23CCN(Cc2ccccc2)[C@H]3CC1[C@H](O)CO (some centres not stated) | – | > 148 | 83.2 µM
41 | CCO/C=C/C=C(C(=O)OCC)C(=O)OCC | – | > 148 | > 148 µM
42 | O=C(NCc1ccc(Cl)c(Cl)c1)c1nc2ccccc2nc1NCc1ccc(Cl)c(Cl)c1 | – | > 126 | 55 µM
43 | COc1ccc(NC2CC(C)N(C(=O)c3ccccc3)O2)cc1 (configuration not stated) | – | > 200 | 95.5 µM
44 | COc1cc2c(cc1OC)C(C#N)N(C(=O)c1ccccc1)C=C2OC(=O)c1ccccc1 (configuration not stated) | inactive | – | –

Row | Structure (SMILES) | outcome | EC50 [µM] | IC50
45 | COc1ccc(Br)c(C(=O)N2CCc3ccccc32)c1N | inactive | – | –
46 | CC1C2CC3(c4ccccc4)CC(/C2=N\O)/C(=N/O)C1[C@@]3(C)O (some centres not stated) | – | > 200 | > 200 µM
47 | CCOC(=O)c1c(SCCCN2CCCCC2)n(-c2ccccc2)c(=S)n(-c2ccccc2)c1=O | – | > 37.2 | 6.31 µM
48 | COc1ccccc1N(CN1C(=O)CCC1C(=O)O)C(C)=O (configuration not stated) | inactive | – | –
49 | Clc1cccc(Sc2ccccc2)c1 | – | > 23.4 | > 23.4 µM
50 | CCN1C[C@]2(COC)[C@H](O)C[C@H](OC)[C@]34C1[C@H]([C@H](OC)[C@H]23)[C@]1(OC(C)=O)[C@H]2[C@@H](OC(=O)c3ccccc3)[C@](O)(C[C@H]24)[C@@H](OC)[C@@H]1O | inactive | – | –
51 | COc1ccc(-c2c3c(n(C4OC(COC(C)=O)C(OC(C)=O)C(OC(C)=O)C4OC(C)=O)c(=S)c2C#N)CC(C)(C)CC3=O)cc1 (configuration not stated) | – | > 200 | 26.3 µM and 53.7 µM
52 | Nc1ncnc2c1ncn2CC(O)CO (configuration not stated) | inactive | – | –
53 | CCCNC(=O)N(C)S(=O)(=O)c1ccc(Cl)cc1 | inactive | – | –
54 | CCCCCCCCCC1CC(=O)c2c(O)cccc2O1 (configuration not stated) | – | > 18.2 | > 18.2 µM
55 | Nc1nnc2c(-c3ccccc3)[nH]nc2n1 | inactive | – | –
56 | Cc1cc(O)c(/C=N/C(=S)NCCc2ccccc2)c(=O)o1 | – | > 200 | > 200 µM
57 | CC[CH2][Sn]([CH2]CC)([O]C(=O)c1cccnc1SC)[O][Sn]([CH2]CC)([CH2]CC)[O]C(=O)c1cccnc1SC | – | > 24.5 | 5.62 µM
58 | CCC1COc2nc(=O)c(C=NCCCN(C)C)c(N)n21 (configuration not stated) | – | > 302 | > 302 µM
59 | Cc1cc(=O)n2cn[nH]c2n1 | – | > 200 | > 200 µM
60 | Cc1cc2c(c(C(N)=O)c1C)-c1cc(Cl)cc(Cl)c1C2=O | – | > 22.4 | > 22.4 µM
61 | Cc1nnc2sc(C(=O)O)nn12 | – | > 200 | > 200 µM
62 | CCOC(=O)c1sc2c(c1OC(=O)c1cc(OC)c(OC)c(OC)c1)c(=O)n(-c1ccccc1)c(=S)n2-c1ccccc1 | – | > 200 | 4.47 µM
63 | O=C(NC12CC3CC(CC(F)(C3)C1)C2)c1ccccc1 | – | > 132 | 52.5 µM
64 | CN(C)CCN1C(=O)c2ccccc2N(C)c2ccccc21 | – | > 200 | > 200 µM
65 | Cc1c(C#N)c2n(c1C)CCCC(=O)N2 | – | > 219 | > 219 µM
66 | Cc1ccc2c(c1)C1(C)OC(C=CC1=O)O2 (configuration not stated) | – | > 3.16 | 0.525 µM

Row | Structure (SMILES) | outcome | EC50 [µM] | IC50
67 | Cc1ccc(/C(O)=C/C(=O)C(=O)NN=C(c2ccccc2)c2ccccc2)cc1 | – | > 200 | 107 µM
68 | CN(C)c1ccc(/C=C(\NC(=O)c2ccccc2)c2nn(C)c(=O)o2)cc1 | – | > 100 | > 100 µM
69 | CSC1=C(SC)SC(=C2SC3=C(SC(=C4SCCS4)S3)S2)S1 | – | > 100 | > 100 µM
70 | O=c1[nH]c2ccccc2nc1CBr | – | > 200 | 2.82 µM
71 | CCCCCCCCC(O)c1ccc(/C=C\C(O)CCCC(=O)O)s1 (configuration not stated) | – | > 63.1 | > 63.1 µM
72 | [O-]c1on[n+]2c1c(Nc1ccc(Cl)cc1)nc1ccccc12 | – | > 115 | > 115 µM
73 | CCOC(=O)c1c(C)cc(C)nc1[S][Sn]([Br])([Br])[S]c1nc(C)cc(C)c1C(=O)OCC | – | 40.7 | 51.3 µM
74 | C/C(=N\NC(=O)c1ccncc1)c1cccc(/C(C)=N/NC(=O)c2ccncc2)n1.O=S(=O)([O-])[O-].[Fe+2] | – | > 200 | 16.2 µM
75 | OC(C#CCN1CCCC1)(c1ccccc1)c1ccc(Br)cc1.[C-]#[O+].[C-]#[O+].[C-]#[O+].[C-]#[O+].[C-]#[O+].[C-]#[O+].[Co].[Co] (configuration not stated) | – | > 200 | 7.08 µM
76 | CS1(C)=Nc2c([N+](=O)[O-])cc([N+](=O)[O-])cc2S(=O)(=O)N=1 | – | > 112 | 58.9 µM
77 | O=c1[nH]nc(-c2cccc([N+](=O)[O-])c2)[nH]1 | – | > 200 | 148 µM
78 | Cc1cc(=O)oc2cc(OCc3nc4ccccc4c(=O)[nH]3)ccc12 | – | > 107 | > 107 µM
79 | O=C1CC2C(=O)N(Cc3ccccc3)C1C(S(=O)(=O)c1ccccc1)C2S(=O)(=O)c1ccccc1 (configuration not stated) | inactive | – | –
80 | CC1CCC(NC(=O)N(CCCl)N=O)CC1 (configuration not stated) | – | > 145 | > 145 µM
81 | C/C(=C\CNc1ncnc2nc(Cl)[nH]c12)CO | – | > 200 | > 200 µM
82 | COc1cccc(-c2nc(-c3cnccn3)n(C3OC(CO)C(O)C3O)n2)c1 (configuration not stated) | – | > 200 | > 200 µM
83 | CC1=CC[C@@]2(C)CC[C@](O)(C(C)C)C2C(OC(=O)c2ccccc2)C1 (some centres not stated) | – | > 200 | 13.2 µM
84 | CC12CC3CC(C)(C1)CC(SC(=N)N)(C3)C2 | – | > 776 | 38.9 µM
85 | COc1ccc2nc3cc(Cl)ccc3c(Sc3ccc(N)cc3)c2c1 | – | > 14.1 | 3.31 µM
86 | CC1(C)CC(=O)c2c(nc3ccc4ccccc4c3c2-c2ccc(NC(=O)CCCC(=O)Nc3ccc(-c4c5c(nc6ccc7ccccc7c46)CC(C)(C)CC5=O)cc3)cc2)C1 | – | > 100 | > 100 µM
87 | CCC1=C(OC)c2nccc(C)c2C(=O)C1=O | inactive | – | –
